Data reported in patent US20190263796A1, “LIM KINASE INHIBITORS, PHARMACEUTICAL COMPOSITION AND METHOD OF USE IN LIMK-MEDIATED DISEASES” (CELLIPSE, priority 2016, published 2019).

Assays:
[1] = system: Phospho-Ser3-Cofilin/Total Cofilin; assay: Western blot cofilin phosphorylation, Kasumi-1; format: cell-based; settings: Homo sapiens; Kasumi-1 cells; 2 h
Description: Kasumi-1 cell line was originally purchased from the American Type Culture Collection (ATCC). Kasumi-1 cells are cultured in RPMI 1640 20% (v/v) FBS supplemented with 100 U/mL^−1 penicillin, 0.1 mg·mL^−1 streptomycin (PAN Biotech P06-07100). Cells were maintained at 37° C. with 5% CO2.
In a 6 wells plate (Falcon 353046), 2·10^6 cells in 1.5 mL medium are treated for 2 h with compounds. Cells are then collected and cell lysis is performed at 4° C. using RIPA buffer supplemented with protease inhibitors cocktail (Sigma-Aldrich P8340) and phosphatase inhibitors cocktail (Sigma-Aldrich P5726). Following centrifugation 30 min 15000 g 4° C., supernatants are mixed with Laemmli buffer and denaturation is performed by heating 5 min 95° C. 10 μL of samples are subjected to electrophoresis on 15% SDS-PAGE. After electro-transfer (Mini Transblot, Bio-Rad), the PVDF membrane (Merck-Millipore Immobilon P IPVH00010) is blocked with Tris Buffered Saline, pH 7.4 (TBS) with 0.1% Tween 20 and 5% BSA for 1 h RT under agitation. […] For each concentration of compound, ratio between phosphorylated cofilin and total cofilin is determined. This ratio is then expressed as percentage of control ratio (i.e., ratio from DMSO treated cells). IC50 Phospho-Ser3-Cofilin/Total Cofilin is then determined.

MLCK(h) = assay: KinaseProfiler panel: MLCK(h); format: biochemical, human; settings: residual activity, 5 μM inhibitor, Km ATP
Description: (§1) Kinase selectivity was performed on a panel of 58 recombinant protein kinases. The assays were performed in the presence of 5 μM inhibitor at the respective Km ATP for each kinase, using the KinaseProfiler panel service (Merck-Millipore). Residual activity measured in the presence of […] inhibitor is expressed as the percent of activity determined in the absence of inhibitor.

PKBα(h) = molecular target: T1, PKBα(h) (Homo sapiens, UniProt P31749); assay: KinaseProfiler panel: PKBα(h); format: biochemical; settings: residual activity, 5 μM inhibitor, Km ATP
T1 construct: purchased Merck-Millipore (KinaseProfiler panel service)
Description: as §1

PAK2(h) = molecular target: T2, PAK2(h) (Homo sapiens, UniProt Q13177); assay: KinaseProfiler panel: PAK2(h); format: biochemical; settings: residual activity, 5 μM inhibitor, Km ATP
T2 construct: purchased Merck-Millipore (KinaseProfiler panel service)
Description: as §1

A-Raf(h) = molecular target: T3, A-Raf(h) (Homo sapiens, UniProt P10398); assay: KinaseProfiler panel: A-Raf(h); format: biochemical; settings: residual activity, 5 μM inhibitor, Km ATP
T3 construct: purchased Merck-Millipore (KinaseProfiler panel service)
Description: as §1

EGFR(h) = molecular target: T4, EGFR(h) (Homo sapiens, UniProt P00533); assay: KinaseProfiler panel: EGFR(h); format: biochemical; settings: residual activity, 5 μM inhibitor, Km ATP
T4 construct: purchased Merck-Millipore (KinaseProfiler panel service)
Description: as §1

Src(1-530)(h) = molecular target: T5, Src(1-530)(h) (Homo sapiens, UniProt P12931); assay: KinaseProfiler panel: Src(1-530)(h); format: biochemical; settings: residual activity, 5 μM inhibitor, Km ATP
T5 construct: Src(1-530)(h); purchased Merck-Millipore (KinaseProfiler panel service)
Description: as §1

CaMKIβ(h) = molecular target: T6, CaMKIβ(h) (Homo sapiens, UniProt Q6P2M8); assay: KinaseProfiler panel: CaMKIβ(h); format: biochemical; settings: residual activity, 5 μM inhibitor, Km ATP
T6 construct: purchased Merck-Millipore (KinaseProfiler panel service)
Description: as §1

FAK(h) = molecular target: T7, FAK(h) (Homo sapiens, UniProt Q05397); assay: KinaseProfiler panel: FAK(h); format: biochemical; settings: residual activity, 5 μM inhibitor, Km ATP
T7 construct: purchased Merck-Millipore (KinaseProfiler panel service)
Description: as §1

Plk1(h) = molecular target: T8, Plk1(h) (Homo sapiens, UniProt P53350); assay: KinaseProfiler panel: Plk1(h); format: biochemical; settings: residual activity, 5 μM inhibitor, Km ATP
T8 construct: purchased Merck-Millipore (KinaseProfiler panel service)
Description: as §1

PAK6(h) = molecular target: T9, PAK6(h) (Homo sapiens, UniProt Q9NQU5); assay: KinaseProfiler panel: PAK6(h); format: biochemical; settings: residual activity, 5 μM inhibitor, Km ATP
T9 construct: purchased Merck-Millipore (KinaseProfiler panel service)
Description: as §1

AMPKα1(h) = molecular target: T10, AMPKα1(h) (Homo sapiens, UniProt Q13131); assay: KinaseProfiler panel: AMPKα1(h); format: biochemical; settings: residual activity, 5 μM inhibitor, Km ATP
T10 construct: purchased Merck-Millipore (KinaseProfiler panel service)
Description: as §1

T10 sequence (Q13131 whole entry): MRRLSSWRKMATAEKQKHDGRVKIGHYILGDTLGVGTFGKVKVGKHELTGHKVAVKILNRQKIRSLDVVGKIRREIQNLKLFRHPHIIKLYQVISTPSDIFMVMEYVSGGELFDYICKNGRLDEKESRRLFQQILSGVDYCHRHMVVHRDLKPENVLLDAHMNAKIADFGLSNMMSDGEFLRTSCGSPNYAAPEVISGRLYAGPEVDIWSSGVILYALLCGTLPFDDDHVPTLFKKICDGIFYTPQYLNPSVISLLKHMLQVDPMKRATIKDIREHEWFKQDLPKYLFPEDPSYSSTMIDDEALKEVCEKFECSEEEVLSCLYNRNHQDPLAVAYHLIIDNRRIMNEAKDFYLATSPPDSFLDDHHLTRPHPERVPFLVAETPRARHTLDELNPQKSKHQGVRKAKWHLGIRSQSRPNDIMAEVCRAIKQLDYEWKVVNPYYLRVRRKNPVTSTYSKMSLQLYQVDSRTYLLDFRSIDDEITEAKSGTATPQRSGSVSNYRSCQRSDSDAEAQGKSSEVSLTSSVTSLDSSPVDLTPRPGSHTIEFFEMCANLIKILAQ
T10 sequence (Q9Y478 whole entry partner): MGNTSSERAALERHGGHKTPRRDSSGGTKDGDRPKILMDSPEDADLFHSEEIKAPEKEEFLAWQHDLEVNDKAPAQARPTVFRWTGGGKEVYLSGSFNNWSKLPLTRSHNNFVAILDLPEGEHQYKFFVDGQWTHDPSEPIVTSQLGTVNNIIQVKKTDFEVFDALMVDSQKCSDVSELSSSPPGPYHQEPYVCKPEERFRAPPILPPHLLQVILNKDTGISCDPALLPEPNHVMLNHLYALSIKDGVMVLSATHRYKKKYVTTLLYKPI
T10 sequence (P54619 whole entry partner): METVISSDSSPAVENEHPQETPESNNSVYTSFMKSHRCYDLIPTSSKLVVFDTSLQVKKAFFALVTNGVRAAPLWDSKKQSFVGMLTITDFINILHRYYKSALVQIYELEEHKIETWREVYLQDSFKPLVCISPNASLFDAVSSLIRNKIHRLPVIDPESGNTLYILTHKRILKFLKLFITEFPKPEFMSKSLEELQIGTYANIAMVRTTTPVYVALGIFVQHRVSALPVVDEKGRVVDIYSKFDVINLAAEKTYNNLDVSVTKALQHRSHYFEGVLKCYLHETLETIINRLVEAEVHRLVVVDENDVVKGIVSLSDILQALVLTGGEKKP
T7 sequence (Q05397 whole entry): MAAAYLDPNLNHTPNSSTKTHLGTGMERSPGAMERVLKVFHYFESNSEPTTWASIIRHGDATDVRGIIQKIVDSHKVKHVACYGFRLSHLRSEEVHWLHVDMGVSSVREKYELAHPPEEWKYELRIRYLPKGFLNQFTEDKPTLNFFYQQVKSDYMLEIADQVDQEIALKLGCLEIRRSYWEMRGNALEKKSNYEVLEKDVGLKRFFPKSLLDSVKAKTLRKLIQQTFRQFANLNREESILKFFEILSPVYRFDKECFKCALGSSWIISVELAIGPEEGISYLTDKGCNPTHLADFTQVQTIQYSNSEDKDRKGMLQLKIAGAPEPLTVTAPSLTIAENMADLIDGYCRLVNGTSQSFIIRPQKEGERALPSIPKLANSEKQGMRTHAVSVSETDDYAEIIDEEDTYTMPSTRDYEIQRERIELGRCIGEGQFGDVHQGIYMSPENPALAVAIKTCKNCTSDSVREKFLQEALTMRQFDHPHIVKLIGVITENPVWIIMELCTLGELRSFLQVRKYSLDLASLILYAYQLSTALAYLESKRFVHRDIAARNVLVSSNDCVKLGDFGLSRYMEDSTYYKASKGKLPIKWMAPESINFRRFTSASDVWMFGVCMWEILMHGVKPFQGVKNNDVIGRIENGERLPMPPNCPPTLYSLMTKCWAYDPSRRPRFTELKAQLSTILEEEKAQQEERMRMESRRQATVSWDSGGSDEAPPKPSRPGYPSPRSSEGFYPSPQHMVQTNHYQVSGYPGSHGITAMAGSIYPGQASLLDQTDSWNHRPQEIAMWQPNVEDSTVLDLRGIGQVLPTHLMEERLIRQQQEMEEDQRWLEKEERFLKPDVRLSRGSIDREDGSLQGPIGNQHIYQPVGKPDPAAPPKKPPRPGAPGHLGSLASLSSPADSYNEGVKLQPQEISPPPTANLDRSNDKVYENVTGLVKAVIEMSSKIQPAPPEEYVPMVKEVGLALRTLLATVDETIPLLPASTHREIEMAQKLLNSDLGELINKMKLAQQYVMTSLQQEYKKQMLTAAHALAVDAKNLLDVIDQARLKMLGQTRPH
T3 sequence (P10398 whole entry): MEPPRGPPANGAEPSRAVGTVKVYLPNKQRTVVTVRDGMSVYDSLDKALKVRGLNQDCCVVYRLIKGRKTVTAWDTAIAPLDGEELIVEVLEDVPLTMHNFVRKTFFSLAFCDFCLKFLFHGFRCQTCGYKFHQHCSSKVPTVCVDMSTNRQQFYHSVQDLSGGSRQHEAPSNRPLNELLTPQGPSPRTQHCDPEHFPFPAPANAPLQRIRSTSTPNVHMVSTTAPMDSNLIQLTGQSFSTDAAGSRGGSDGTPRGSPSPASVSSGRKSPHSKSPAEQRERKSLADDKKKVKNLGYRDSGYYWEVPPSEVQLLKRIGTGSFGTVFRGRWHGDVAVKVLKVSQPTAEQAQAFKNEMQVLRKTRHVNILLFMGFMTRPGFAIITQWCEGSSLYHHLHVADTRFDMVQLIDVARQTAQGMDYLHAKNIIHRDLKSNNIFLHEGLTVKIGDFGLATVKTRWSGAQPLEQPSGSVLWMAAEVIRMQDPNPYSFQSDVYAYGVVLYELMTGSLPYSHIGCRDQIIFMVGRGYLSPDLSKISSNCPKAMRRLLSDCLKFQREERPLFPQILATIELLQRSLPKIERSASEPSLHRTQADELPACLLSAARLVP
T9 sequence (Q9NQU5 whole entry): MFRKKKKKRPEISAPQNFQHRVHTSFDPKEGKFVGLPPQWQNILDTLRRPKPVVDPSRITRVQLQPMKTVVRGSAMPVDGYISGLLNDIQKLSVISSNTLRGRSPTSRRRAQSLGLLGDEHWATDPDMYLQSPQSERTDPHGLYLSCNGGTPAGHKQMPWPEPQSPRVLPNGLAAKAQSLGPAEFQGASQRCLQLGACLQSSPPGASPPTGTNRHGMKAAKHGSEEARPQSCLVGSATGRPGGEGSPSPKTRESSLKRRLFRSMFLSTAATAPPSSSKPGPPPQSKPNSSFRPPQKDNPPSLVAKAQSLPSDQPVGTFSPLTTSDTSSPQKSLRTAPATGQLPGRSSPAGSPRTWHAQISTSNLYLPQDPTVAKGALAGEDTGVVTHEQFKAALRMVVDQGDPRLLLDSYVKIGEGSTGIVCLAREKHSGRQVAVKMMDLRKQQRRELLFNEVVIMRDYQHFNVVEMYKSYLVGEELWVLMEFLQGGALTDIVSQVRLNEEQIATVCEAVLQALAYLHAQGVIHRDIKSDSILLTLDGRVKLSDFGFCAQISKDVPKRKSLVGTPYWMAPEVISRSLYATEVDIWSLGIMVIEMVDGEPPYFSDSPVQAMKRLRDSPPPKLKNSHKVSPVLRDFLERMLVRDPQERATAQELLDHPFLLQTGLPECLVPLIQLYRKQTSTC
T6 sequence (Q6P2M8 whole entry): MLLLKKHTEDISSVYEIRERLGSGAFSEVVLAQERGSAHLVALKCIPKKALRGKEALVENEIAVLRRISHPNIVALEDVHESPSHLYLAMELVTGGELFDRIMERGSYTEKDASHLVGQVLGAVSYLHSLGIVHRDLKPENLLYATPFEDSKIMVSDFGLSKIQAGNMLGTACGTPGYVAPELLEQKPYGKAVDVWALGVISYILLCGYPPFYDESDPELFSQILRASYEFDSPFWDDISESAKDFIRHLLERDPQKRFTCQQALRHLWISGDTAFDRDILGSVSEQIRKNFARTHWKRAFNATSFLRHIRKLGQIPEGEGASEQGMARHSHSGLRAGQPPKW
T1 sequence (P31749 whole entry): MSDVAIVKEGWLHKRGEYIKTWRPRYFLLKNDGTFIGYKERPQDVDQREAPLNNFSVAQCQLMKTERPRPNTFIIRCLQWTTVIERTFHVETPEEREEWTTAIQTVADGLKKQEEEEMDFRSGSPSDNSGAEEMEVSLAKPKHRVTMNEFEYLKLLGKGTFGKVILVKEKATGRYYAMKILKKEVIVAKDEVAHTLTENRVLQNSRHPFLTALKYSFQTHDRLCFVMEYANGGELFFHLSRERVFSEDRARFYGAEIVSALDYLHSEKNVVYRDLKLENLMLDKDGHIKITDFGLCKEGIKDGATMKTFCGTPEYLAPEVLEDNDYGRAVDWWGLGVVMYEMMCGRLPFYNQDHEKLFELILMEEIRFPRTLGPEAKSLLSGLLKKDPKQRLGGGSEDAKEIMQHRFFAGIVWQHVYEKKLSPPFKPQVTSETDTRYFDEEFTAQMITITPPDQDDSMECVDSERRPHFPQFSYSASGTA
T2 sequence (Q13177 whole entry): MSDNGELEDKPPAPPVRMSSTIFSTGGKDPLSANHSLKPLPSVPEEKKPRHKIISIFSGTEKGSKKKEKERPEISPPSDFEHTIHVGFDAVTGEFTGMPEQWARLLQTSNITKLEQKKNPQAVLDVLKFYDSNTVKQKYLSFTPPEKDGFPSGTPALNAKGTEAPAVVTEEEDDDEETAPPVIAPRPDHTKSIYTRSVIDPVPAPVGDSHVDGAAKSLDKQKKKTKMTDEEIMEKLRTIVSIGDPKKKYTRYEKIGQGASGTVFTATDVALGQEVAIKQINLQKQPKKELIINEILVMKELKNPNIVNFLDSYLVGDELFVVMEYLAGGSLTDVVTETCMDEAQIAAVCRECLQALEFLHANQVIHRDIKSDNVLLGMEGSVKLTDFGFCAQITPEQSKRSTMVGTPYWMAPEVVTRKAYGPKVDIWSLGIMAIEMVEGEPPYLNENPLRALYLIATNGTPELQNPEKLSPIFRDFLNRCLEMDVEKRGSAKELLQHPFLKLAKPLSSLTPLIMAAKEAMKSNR

SMILES | IC50 [1] [µM] | % activity (MLCK(h)) | activity at 5 µM (PKBα(h)) [%] | activity at 5 µM (PAK2(h)) [%] | activity at 5 µM (A-Raf(h)) [%] | activity at 5 µM (EGFR(h)) [%] | activity at 5 µM (Src(1-530)(h)) [%] | activity at 5 µM (CaMKIβ(h)) [%] | activity at 5 µM (FAK(h)) [%] | activity at 5 µM (Plk1(h)) [%] | activity at 5 µM (PAK6(h)) [%] | activity at 5 µM (AMPKα1(h)) [%]
O=S(=O)(Nc1cccc(-c2nc(CCO)sc2-c2ccnc(Nc3ccccc3)n2)c1F)c1c(F)cccc1F [8 (Na)] | < 0.2 | – | – | – | – | – | – | – | – | – | – | –
CC(C)(C)c1nc(-c2cccc(NS(=O)(=O)c3c(F)cccc3F)c2F)c(-c2ccnc(Nc3ccccc3)n2)s1 [Compound 1, N-(3-(2-(tert-butyl)-5-(2-(phenylamino)pyrimidin-4-yl)thiazol-4-yl)-2-fluorophenyl)-2,6-difluorobenzenesulfonamide] | – | − (50%≤residual activity) | ≥ 50 | ≥ 50 | ≥ 50 | ≥ 50 | 3 to 10 | ≥ 50 | ≥ 50 | ≥ 50 | ≥ 50 | ≥ 50
